Assay results: patent US7465805B2, “Isoxazoline derivatives and their use as herbicides” (Syngenta Limited, priority 2004, dated 2008)

How the values were obtained:
[1] = test system: Monocotyledonous and dicotyledonous test plants; assay: Herbicidal action, application pre-emergence (Example B1); format: in vivo; set-up: key: 10=total damage to plant; 0=no damage to plant; conditions: 1000 g/ha, scale 10=total damage to plant, 0=no damage to plant, evaluated after 9 or 13 days
Protocol: Monocotyledonous and dicotyledonous test plants were sown in sterilised standard soil in seed trays each having 96 cells. After one day (pre-emergence) or after 8 to 9 days cultivation (post-emergence) under controlled conditions in a climatic chamber (cultivation at 17/23° C.; 13 hours light; 50-60% humidity; after application at 19/24° C.), the plants were treated with an aqueous spray solution of 1000 mg/l of the active ingredient used (including 10% DMSO as solvent). The plants were grown on in the climatic chamber until the test was evaluated (10=total damage to plant, 0=no damage to plant) after 9 or 13 days.

[2] = test system: maize (Marista); assay: Pre-emergent safening test on maize (Example E1); format: in vivo; conditions: Comp. 1.01 WP 25% AW/W alone, evaluated after 14 days
Protocol: The test plants were sown in seed trays under greenhouse conditions. A standard earth was used as the culture substrate. In a pre-emergent stage, the herbicides were applied both by themselves and in a mixture with safeners to the soil surface. The application was carried out with an aqueous suspension of the test substances, prepared from a 25% wettable powder (Example F3, b according to WO 97/34485) or from a suspension concentrate (Example F8 according to WO 97/34485), to achieve a field equivalent of 200 1/ha. The tests were evaluated after 14 days (100%=plants completely dead; 0%=no phytotoxic action on the plants).

| melting point | Structure (SMILES) | Herbicidal action on Agrostis (damage rating) [1] | Herbicidal action on Digitaria (damage rating) [1] | Herbicidal action on Poa (damage rating) [1] | Herbicidal action on Setaria (damage rating) [1] | phytotoxic action on maize (100%=plants completely dead; 0%=no phytotoxic action on the plants) ([2]; 200 g/ha) | phytotoxic action on maize (100%=plants completely dead; 0%=no phytotoxic action on the plants) ([2]; 400 g/ha) |
| --- | --- | --- | --- | --- | --- | --- | --- |
| – | CC1(C)CC(S(=N)(=O)C(Cl)c2c(F)cccc2F)=NO1 (mixture of isomers) [1.02] | 10 | 10 | 10 | 10 | – | – |
| – | CC(Cl)OC(=O)N=S(=O)(Cc1c(F)cccc1F)C1=NOC(C)(C)C1 (mixture of isomers) [1.17] | 10 | 8 | 10 | 8 | – | – |
| – | CC1(C)CC(S(=N)(=O)C(F)c2ccccc2OC(F)(F)F)=NO1 (mixture of isomers) [1.56] | 10 | 9 | 10 | 8 | – | – |
| 154 to 156 °C | CC1(C)CC(S(=O)(Cc2c(F)cccc2F)=NC(=O)c2ccc(Cl)cc2)=NO1 (centres unmarked) [1.03] | 7 | 8 | 10 | 8 | – | – |
| 143 to 144 °C | CC1(C)CC(S(=O)(Cc2c(F)cccc2F)=NC(=O)C(F)(F)F)=NO1 (centres unmarked) [1.04, 3-{2,6-difluoro-phenylmethane(N-trifluoromethyl-carbonyl)sulfoximinyl)-5,5-dimethyl-4,5-dihydroisoxazole] | 10 | 10 | 10 | 10 | – | – |
| – | CC1(C)CC(S(=O)(=NC(=O)C(F)(F)F)C(Cl)c2c(F)cccc2F)=NO1 (centres unmarked) [1.05] | 10 | 9 | 10 | 9 | – | – |
| – | CC(C)(C)OC(=O)N=S(=O)(Cc1c(F)cccc1F)C1=NOC(C)(C)C1 (centres unmarked) [1.06] | 9 | 7 | 6 | 10 | – | – |
| – | CC(=O)N=S(=O)(Cc1c(F)cccc1F)C1=NOC(C)(C)C1 (centres unmarked) [1.07] | 10 | 9 | 10 | 9 | – | – |
| – | CN=S(=O)(Cc1c(F)cccc1F)C1=NOC(C)(C)C1 (centres unmarked) [1.08, 3-{2,6-difluoro-phenylmethane(N-methyl)sulfoximinyl)-5,5-dimethyl-4,5-dihydroisoxazole] | 10 | 7 | 10 | 9 | – | – |
| – | CC1(C)CC(S(=O)(Cc2c(F)cccc2F)=NC=O)=NO1 (centres unmarked) [1.13] | 10 | 9 | 10 | 9 | – | – |
| 108 °C | CC1(C)CC(S(=O)(Cc2c(F)cccc2F)=NS(=O)(=O)C(F)(F)F)=NO1 (centres unmarked) [1.14, 3-{2,6-difluoro-phenylmethane(N-trifluoromethylsulphonyl)-sulfoximinyl)-5,5-dimethyl-4,5-dihydroisoxazole] | 10 | 7 | 10 | 0 | – | – |
| – | CC1(C)CC(S(=O)(Cc2c(F)cccc2F)=N[N+](=O)[O-])=NO1 (centres unmarked) [1.15] | 10 | 9 | 10 | 8 | – | – |
| – | CC(c1c(F)cccc1F)S(=O)(=NC(=O)C(F)(F)F)C1=NOC(C)(C)C1 (centres unmarked) [1.19] | 10 | 9 | 6 | 9 | – | – |
| – | CC(c1c(F)cccc1F)S(=O)(=NC(=O)C(F)(F)F)C1=NOC(C)(C)C1 (centres unmarked) [1.20] | 9 | 8 | 4 | 8 | – | – |
| – | CC1(C)CC(S(=O)(Cc2c(F)cccc2F)=NC(=O)c2cccnc2Cl)=NO1 (centres unmarked) [1.21] | 10 | 9 | 10 | 9 | – | – |
| – | CC1(C)CC(S(=N)(=O)C(F)(F)c2c(F)cccc2F)=NO1 (centres unmarked) [1.22] | 10 | 10 | 10 | 10 | – | – |
| – | CC1(C)CC(S(=N)(=O)Cc2ccccc2OC(F)(F)F)=NO1 (centres unmarked) [1.24] | 10 | 9 | 0 | 8 | – | – |
| – | CC1(C)CC(S(=N)(=O)Cc2ccccc2OC(F)F)=NO1 (centres unmarked) [1.25] | 10 | 9 | 10 | 8 | – | – |
| – | Cc1ccccc1CS(=N)(=O)C1=NOC(C)(C)C1 (centres unmarked) [1.27] | 5 | 8 | 0 | 5 | – | – |
| – | Cc1ccc(F)c(CS(=N)(=O)C2=NOC(C)(C)C2)c1F (centres unmarked) [1.28] | 10 | 9 | 10 | 8 | – | – |
| – | CC1(C)CC(S(=N)(=O)Cc2cccc(F)c2F)=NO1 (centres unmarked) [1.29] | 10 | 8 | 10 | 6 | – | – |
| – | CC1(C)CC(S(=N)(=O)Cc2ccc(F)cc2F)=NO1 (centres unmarked) [1.30] | 10 | 10 | 10 | 8 | – | – |
| – | CC1(C)CC(S(=N)(=O)Cc2ccccc2C(F)(F)F)=NO1 (centres unmarked) [1.31] | 10 | 8 | 8 | 8 | – | – |
| – | CC1(C)CC(S(=N)(=O)Cc2c(F)cccc2C(F)(F)F)=NO1 (centres unmarked) [1.32] | 10 | 10 | 10 | 9 | – | – |
| – | CC1(C)CC(S(=N)(=O)Cc2cc(F)ccc2F)=NO1 (centres unmarked) [1.34] | 10 | 9 | 10 | 8 | – | – |
| – | CC1(C)CC(S(=O)(=NC(=O)c2ccccc2)C(F)c2c(F)cccc2F)=NO1 (centres unmarked) [1.35] | 10 | 8 | 10 | 8 | – | – |
| – | CC1(C)CC(S(=O)(Cc2c(F)cccc2F)=NC(=O)c2ccccc2)=NO1 (centres unmarked) [1.36] | 10 | 5 | 0 | 7 | – | – |
| – | CC1(C)CC(S(=N)(=O)Cc2cc(F)cc3c2OCOC3)=NO1 (centres unmarked) [1.48] | 0 | 8 | 0 | 8 | – | – |
| – | Cn1nc(C(F)(F)F)c(CS(=N)(=O)C2=NOC(C)(C)C2)c1Cl (centres unmarked) [2.01] | 10 | 10 | 10 | 10 | – | – |
| – | CC1(C)CC(S(=N)(=O)Cc2c(F)cccc2F)=NO1 (centres unmarked) [Comp. 1.01] | 10 | 10 | 10 | 9 | 67.5% | 62.5% |
